Experimental data: US20210139517A1, “BICYCLIC HETEROARYL COMPOUNDS AND USES THEREOF” (Revolution Medicines, Inc., priority 2019, published 2021)
Read-outs that look alike come from different tables or passages of the source.

Tests used:
[1] = target: T1, SOS1 nucleotide exchange of wild-type KRAS (SOS1 catalytic domain residues 564-1049; KRAS residue 1-169) (Homo sapiens, UniProt Q07889); test: Inhibition of SOS1 nucleotide exchange activity of KRAS (TR-FRET); format: biochemical
T1 sequence (Q07889 564-1049): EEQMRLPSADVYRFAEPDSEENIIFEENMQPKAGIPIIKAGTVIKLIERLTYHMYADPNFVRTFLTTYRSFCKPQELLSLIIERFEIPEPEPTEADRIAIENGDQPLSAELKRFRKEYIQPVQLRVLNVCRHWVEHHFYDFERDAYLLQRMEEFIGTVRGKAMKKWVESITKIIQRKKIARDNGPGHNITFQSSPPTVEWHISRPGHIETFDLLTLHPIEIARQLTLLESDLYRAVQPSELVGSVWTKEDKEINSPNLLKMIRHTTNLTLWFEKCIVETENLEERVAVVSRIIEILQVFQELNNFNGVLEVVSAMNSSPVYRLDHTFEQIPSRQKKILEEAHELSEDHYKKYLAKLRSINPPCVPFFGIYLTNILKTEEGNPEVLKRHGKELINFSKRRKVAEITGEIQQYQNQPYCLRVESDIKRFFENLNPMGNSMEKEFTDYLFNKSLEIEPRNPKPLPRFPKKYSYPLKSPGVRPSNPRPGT

[2] = target: T2, SOS1 catalytic domain (residues 564-1049) (Homo sapiens, UniProt Q07889); test: SOS1 SPR binding affinity assay (Biacore 8K)
T2 sequence (Q07889 564-1049): T1 sequence (Q07889 564-1049)

[3] = test system: SOS1 function in cells: cellular pERK in PC-9 cells (EGFR Ex19Del); test: pERK potency assay in PC-9 cells (AlphaLISA SureFire Ultra p-ERK1/2); format: cell-based; settings: 1 hour incubation
Method: The purpose of this assay is tomeasure the ability of test compounds to inhibit SOS1 function in cells. SOS1 activates RAS proteins by catalyzing the conversion of RAS-GDP to RAS-GTP in response to receptor tyrosine kinase activation. […] The procedure described below measures the level of cellular pERK in response to test compounds in PC-9 cells (EGFR Ex19Del).
PC-9 cells were grown and maintained using media and procedures recommended by the ATCC. On the day prior to compound addition, cells were plated in 384-well cell culture plates (40 μL/well) and grown overnight in a 37° C., 5% CO2 incubator. Test compounds were prepared in 10, 3-fold dilutions in DMSO, with a top concentration of 10 mM. On the day of the assay, 40 nL of test compound was added to each well of cell culture plate using an Echo550 liquid handler (LabCyte). Concentrations of test compound were tested in duplicate with highest test concentration being 10 μM. After compound addition, cells were incubated for 1 hour at 37° C., 5% CO2. Following incubation, culture medium was removed and cells were washed once with phosphate buffered saline.
Cellular pERK level was determined using the AlphaLISA SureFire Ultra p-ERK1/2 Assay Kit (PerkinElmer). Cells were lysed in 25 μL lysis buffer, with shaking at 600 RPM at room temperature for 15 minutes. Lysate (10 μL) was transferred to a 384-well Opti-plate (PerkinElmer) and 5 μL acceptor mix was added. The plate was centrifuged at 1000 RPM for 1 minute, and incubated in the dark for 2 hours. Following this incubation, 5 μL of donor mix was added, the plate was sealed and centrifuged at 1000 RPM for 1 minute, and the mixture was incubated for 2 hours at room temperature. Signal was read on an Envision plate reader (PerkinElmer) using standard AlphaLISA settings. Analysis of raw data was carried out in Excel (Microsoft) and Prism (GraphPad). Signal was plotted vs. the decadal logarithm of compound concentration, and IC50 was determined by fitting a 4-parameter sigmoidal concentration response model.

[4] = SOS1 nucleotide exchange of wild-type KRAS, three replicates, four-parameter logistic fit, read-out: TR-FRET IC50
[5] = avi-tagged SOS1 catalytic domain immobilized on streptavidin chip, equilibrium 1:1 binding fit, read-out: SOS1 SPR Equilibrium Kd

Row | SMILES | IC50 [3] [nM] | IC50 [1, 4] [nM] | also measured
1 | Cc1nc(N[C@H](C)c2cccc(C(F)(F)CO)c2)c2cc(C3=CCNCC3)c(=O)n(C)c2n1 [Example 4, (R)-4-((1-(3-(1,1-difluoro-2-hydroxyethyl)phenyl)ethyl)amino)-2,8-dimethyl-6-(1,2,3,6-tetrahydropyridin-4-yl)pyrido[2,3-d]pyrimidin-7(8H)-one] | – | – | IC50 [1]: 10.8 nM; Kd [2]: 7.97 nM
2 | C[C@@H](Nc1ncnc2c1cc(C1(F)CCS(=O)(=O)CC1)c(=O)n2C)c1cccc(C(F)F)c1F [Example 29, 4-(4-{[(1R)-1-[3-(difluoromethyl)-2-fluorophenyl]ethyl]amino}-8-methyl-7-oxo-7H,8H-pyrido[2,3-d]-pyrimidin-6-yl)-4-fluoro-1λ^6-thiane-1,1-dione] | – | 50.1 | Kd [2, 5]: 36 nM
3 | Cc1nc(N[C@H](C)c2cccc(C(F)(F)F)c2)c2cc(N3CCOCC3)c(=O)n(C)c2n1 [Example 10, 2,8-dimethyl-6-(morpolin-4-yl)-4-[[(1R)-1-[3-(trifluoromethyl)phenyl]ethyl]amino]-7H,8H-pyrido[2,3-d]pyrimidin-7-one] | – | 178 | IC50 ([3]; Homo sapiens, PC-9, 1 h): 787 nM
4 | Cc1nc(N[C@H](C)c2cccc(C(F)F)c2F)c2cc(C(=O)N3CCOCC3)c(=O)n(C)c2n1 [Example 26, 4-{[(1R)-1-[3-(difluoromethyl)-2-fluorophenyl]ethyl]amino}-2,8-dimethyl-6-(morpholine-4-carbonyl)-7H,8H-pyrido[2,3-d]pyrimidin-7-one] | – | 70.2 | Kd [2, 5]: 115 nM
5 | COC1(c2cc3c(N[C@H](C)c4cccc(C(F)F)c4F)ncnc3n(C)c2=O)CCS(=O)(=O)CC1 [Example 32, 4-(4-{[(1R)-1-[3-(difluoro-methyl)-2-fluorophenyl]ethyl]amino}-8-methyl-7-oxo-7H,8H-pyrido[2,3-d]pyrimidin-6-yl)-4-methoxy-1λ^6-thiane-1,1-dione] | – | – | Kd [2, 5]: 39.6 nM
6 | C[C@@H](Nc1ncnc2c1cc(C1=CCOCC1)c(=O)n2C)c1cccc(C(F)(F)F)c1 [Example 5, (R)-6-(3,6-dihydro-2H-pyran-4-yl)-8-methyl-4-((1-(3-(trifluoromethyl)phenyl)ethyl)amino)pyrido[2,3-d]pyrimidin-7(8H)-one] | – | 113 | –
7 | C[C@@H](Nc1ncnc2c1cc(C1(N)CCOCC1)c(=O)n2C)c1cccc(C(F)F)c1F [Example 31, 6-(4-aminooxan-4-yl)-4-{[(1R)-1-[3-(difluoromethyl)-2-fluorophenyl]ethyl]amino}-8-methyl-7H,8H-pyrido-[2,3-d]pyrimidin-7-one] | – | 31.5 | Kd [2, 5]: 42.8 nM
8 | CN=S1(=O)CC=C(c2cc3c(N[C@H](C)c4cccc(C(F)F)c4F)ncnc3n(C)c2=O)CC1 (stereo partly drawn) [Example 24, 4-(((R)-1-(3-(difluoromethyl)-2-fluorophenyl)ethyl)amino)-8-methyl-6-(1-(methylimino)-1-oxido-1,2,3,6-tetrahydro-1λ^6-thiopyran-4-yl)pyrido[2,3-d]pyrimidin-7(8H)-one] | – | 13.5 | –
9 | C[C@@H](Nc1ncnc2c1cc(C(=O)N1CC3CCC(C1)O3)c(=O)n2C)c1cccc(C(F)F)c1F [Example 26-19] | – | 65.4 | Kd [2, 5]: 148 nM
10 | C[C@@H](Nc1ncnc2c1cc(C1=CC[S+]([O-])CC1)c(=O)n2C)c1cccc(C(F)F)c1F (stereo partly drawn) [Example 22, 4-(((R)-1-(3-(difluoromethyl)-2-fluorophenyl)ethyl)amino)-8-methyl-6-(1-oxido-3,6-dihydro-2H-thiopyran-4-yl)pyrido[2,3-d]pyrimidin-7(8H)-one] | – | 298 | Kd [2, 5]: 34.2 nM
11 | C[C@@H](Nc1ncnc2c1cc(C1(O)CCS(=O)(=O)CC1)c(=O)n2C)c1cccc(C(F)F)c1F [Example 28, 4-(4-{[(1R)-1-[3-(difluoromethyl)-2-fluorophenyl]-ethyl]amino}-8-methyl-7-oxo-7H,8H-pyrido[2,3-d]pyrimidin-6-yl)-4-hydroxy-1λ^6-thiane-1,1-dione] | – | 20.6 | Kd [2, 5]: 45.1 nM
12 | CO[C@]1(c2cc3c(N[C@H](C)c4cccc(C(F)F)c4F)ncnc3n(C)c2=O)CCN(C(C)=O)C1 [Example 32-19] | – | 8.82 | Kd [2, 5]: 6.92 nM
13 | C[C@@H](Nc1ncnc2c1cc(C1CC[S+]([O-])CC1)c(=O)n2C)c1cccc(C(F)F)c1F (stereo partly drawn) [Example 25, (R)-4-((1-(3-(difluoromethyl)-2-fluorophenyl)ethyl)amino)-8-methyl-6-(1-oxidotetrahydro-2H-thiopyran-4-yl)pyrido[2,3-d]pyrimidin-7(8H)-one] | – | 15.9 | Kd [2, 5]: 19.4 nM
14 | C[C@@H](Nc1ncnc2c1cc(N1CCOCC1)c(=O)n2C1CC1)c1cccc(C(F)(F)F)c1 [Example 11, 8-cyclopropyl-6-(morpholin-4-yl)-4-{[(1R)-1-[3-(trifluoromethyl)phenyl]ethyl]amino}-7H,8H-pyrido[2,3-d]pyrimidin-7-one] | – | 32.8 | IC50 ([3]; Homo sapiens, PC-9, 1 h): 292 nM
15 | Cc1nc(N[C@H](C)c2cc(N)cc(C(F)(F)F)c2)c2cc(C3CCNCC3)c(=O)[nH]c2n1 [Example 8, (R)-4-((1-(3-amino-5-(trifluoromethyl)phenyl)ethyl)amino)-2-methyl-6-(piperidin-4-yl)pyrido[2,3-d]pyrimidin-7(8H)-one] | – | 22.2 | –
16 | C[C@@H](Nc1ncnc2c1cc(Sc1ccccc1)c(=O)n2C)c1cccc(C(F)F)c1F [Example 30, 4-{[(1R)-1-[3-(difluoromethyl)-2-fluorophenyl]ethyl]amino}-8-methyl-6-(phenylsulfanyl)-7H,8H-pyrido[2,3-d]pyrimidin-7-one] | – | 10900 | –
17 | Cc1nc(N[C@H](C)c2cccc(C(F)F)c2F)c2cc(C3CCN(C4COC4)CC3)c(=O)n(C)c2n1 [Example 8-14] | 420 | – | –
18 | Cc1nc(N[C@H](C)c2cccc(C(F)F)c2F)c2cc(-c3cncnc3)c(=O)n(C)c2n1 [Example 21-4] | 365 | – | –
19 | CC(=O)N1CCC(c2cc3c(N[C@H](C)c4cccc(C(F)F)c4F)ncnc3n(C)c2=O)CC1 [Example 8-3] | 145 | – | –
20 | Cc1nc(N[C@H](C)c2cccc(C(F)F)c2F)c2cc(-c3ccnnc3)c(=O)n(C)c2n1 [Example 21-3] | 188 | – | –

Second part, led by results:

Row | IC50 [3] [nM] | SMILES | IC50 [1, 4] [nM] | also measured
21 | 57.1 | COC1(c2cc3c(N[C@H](C)c4cccc(C(F)F)c4F)ncnc3n(C)c2=O)CCS(=O)(=O)C1 (stereo partly shown) [Example 32-73] | – | –
22 | 200 | COC1(c2cc3c(N[C@H](C)c4cccc(C(F)F)c4F)ncnc3n(C)c2=O)CCN(C(C)=O)[C@H]1C (stereo partly shown) [Example 32-100] | – | –
23 | 150 | COc1ncccc1-c1cc2c(N[C@H](C)c3cccc(C(F)F)c3F)ncnc2n(C)c1=O [Example 21-7] | – | –
24 | 334 | C[C@@H](Nc1ncnc2c1cc(-c1ccc3nonc3c1)c(=O)n2C)c1cccc(C(F)F)c1F [Example 21-8] | – | –
25 | 67.6 | COC1(c2cc3c(N[C@H](C)c4cccc(C(F)F)c4F)ncnc3n(C)c2=O)CCCN(C(C)=O)C1 (stereo partly shown) [Example 32-68] | – | –
26 | 49.3 | COC1(c2cc3c(N[C@H](C)c4cccc(C(F)F)c4F)ncnc3n(C)c2=O)CCC2(CC1)CN(C(C)=O)C2 [Example 32-78] | – | –
27 | 294 | CO[C@@]1(c2cc3c(N[C@H](C)c4cccc5c4OCC5(F)F)ncnc3n(C)c2=O)CCN(C(C)=O)C1 [Example 32-93] | – | –
28 | 127 | COC1(c2cc3c(N[C@H](C)c4cccc(C(F)F)c4F)ncnc3n(C)c2=O)CCC2(CC1)COC2 [Example 32-72] | – | –
29 | 128 | COC1(c2cc3c(N[C@H](C)c4cccc(C(F)F)c4F)ncnc3n(C)c2=O)CCS(=O)(=O)C(C)C1 (stereo partly shown) [Example 32-67] | – | –
30 | 82.5 | COC1(c2cc3c(N[C@H](C)c4cccc(C(F)F)c4C)ncnc3n(C)c2=O)CCS(=O)(=O)CC1 [Example 32-86] | – | –
31 | 154 | COC1(c2cc3c(N[C@H](C)c4cccc(C(F)F)c4F)ncnc3n(C)c2=O)CC2(COC2)C1 [Example 32-80] | – | –
32 | 2550 | C[C@@H](Nc1ncnc2c1cc(Cc1ccccc1)c(=O)n2C)c1cccc(C(F)F)c1F [Example 20-2] | – | –
